The target of test [1] is T1, Natriuretic Peptide Receptor-A (NPR-A) signaling in MDCK cells (Canis lupus familiaris, UniProt A0A8I3MHU3).
T1 sequence (A0A8I3MHU3 32-1060): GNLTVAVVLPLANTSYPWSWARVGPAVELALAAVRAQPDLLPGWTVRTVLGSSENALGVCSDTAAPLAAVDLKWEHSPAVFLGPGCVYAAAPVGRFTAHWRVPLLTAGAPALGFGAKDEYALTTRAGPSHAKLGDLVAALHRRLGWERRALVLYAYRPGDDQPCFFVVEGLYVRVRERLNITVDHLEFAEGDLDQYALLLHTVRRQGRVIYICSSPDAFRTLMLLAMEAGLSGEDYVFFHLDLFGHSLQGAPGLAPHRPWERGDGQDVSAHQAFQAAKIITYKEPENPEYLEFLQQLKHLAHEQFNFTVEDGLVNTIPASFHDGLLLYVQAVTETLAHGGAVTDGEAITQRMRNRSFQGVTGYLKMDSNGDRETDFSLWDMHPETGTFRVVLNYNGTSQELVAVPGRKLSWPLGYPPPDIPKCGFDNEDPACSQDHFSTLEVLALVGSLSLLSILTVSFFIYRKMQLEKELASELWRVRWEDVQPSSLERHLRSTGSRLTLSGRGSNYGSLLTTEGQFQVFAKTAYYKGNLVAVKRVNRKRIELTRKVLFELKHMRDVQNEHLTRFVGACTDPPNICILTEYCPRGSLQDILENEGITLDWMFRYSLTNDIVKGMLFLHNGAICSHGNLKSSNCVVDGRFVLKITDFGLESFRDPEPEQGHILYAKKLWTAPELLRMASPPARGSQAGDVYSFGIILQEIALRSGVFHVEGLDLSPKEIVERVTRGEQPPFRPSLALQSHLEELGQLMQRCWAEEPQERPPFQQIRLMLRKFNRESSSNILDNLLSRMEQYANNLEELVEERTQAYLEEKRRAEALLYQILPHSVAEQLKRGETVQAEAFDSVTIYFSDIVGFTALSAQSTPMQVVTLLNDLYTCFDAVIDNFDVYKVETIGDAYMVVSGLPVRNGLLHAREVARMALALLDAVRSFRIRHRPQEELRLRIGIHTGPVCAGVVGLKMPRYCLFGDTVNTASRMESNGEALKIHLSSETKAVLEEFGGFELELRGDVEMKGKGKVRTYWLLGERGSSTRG
Type of test: cell-based, canine. To be noted: stimulation of cGMP accumulation in MDCK cells; for EC50: read-out: EC50 (M) ± Standard Error.

Another test has as its system conscious rabbits. As to the kind of experiment: Blood pressure and heart rate in conscious rabbits, intravenous infusion dose-response (Example 8).
Setting [2] is: after 1 hour recovery period, Table 10A.

Positions of bridges follow the written chain, without caps; N, C: chain ends. Non-standard residues stand in square brackets, D forms with d. Residues, ends and D or L forms follow the SMILES beside them. Nle = CCCC[C@H](N)C(=O)O

Usually EC50 stands for the concentration giving half of the maximal effect. Consider `CC[C@H](C)[C@@H]1NC(=O)[C@H](CCCNC(=N)N)NC(=O)[C@H](CC(=O)O)NC(=O)[C@H]([C@@H](C)CC)NC(=O)[C@H](CCCCN)NC(=O)[C@H](Cc2c[nH]cn2)NC(=O)CNC(=O)[C@H](Cc2ccccc2)NC(=O)[C@@H](NC(=O)CNC(=O)[C@H](CC(N)=O)NC(=O)[C@@H]2CCCN2C(=O)[C@@H]2CCCN2C(=O)CNC(=O)[C@H](CCCCN)NC(=O)[C@H](CCCCN)NC(=O)[C@@H]2CCCN2C(=O)[C@@H]2CCCN2C(=O)[C@H](CCCCN)NC(=O)[C@H](CC(N)=O)NC(=O)[C@H](CC(=O)O)NC(=O)CN)CSSC[C@@H](C(=O)N[C@@H](CC(N)=O)C(=O)N[C@@H](CCCCN)C(=O)N[C@H](C(=O)N[C@@H](CC(=O)O)C(=O)N[C@@H](CC(=O)O)C(=O)N[C@@H](CC(N)=O)C(=O)N[C@@H](CCCCN)C(=O)NCC(=O)O)C(C)C)NC(=O)CNC(=O)[C@H](CC(C)C)NC(=O)CNC(=O)[C@H](CO)NC(=O)[C@H](Cc2c[nH]cn2)NC(=O)[C@H](CO)NC(=O)CNC1=O` [Lebetin] (H-GDNKPPKKGPPNGCFGHKIDRIGSHSGLGCNKVDDNKG-OH; disulfide 14-30; N-terminus and C-terminus assumed), for which, in test [1], the “−Log10 EC50 (pEC50) ± Standard Error” value turned out to be 7.637 ± 0.1619 and the EC50 is 2.67e-08 M.

With `CCCC[C@H](NC(=O)[C@@H](NC(=O)[C@H](CCCNC(=N)N)NC(=O)[C@H](CC(N)=O)NC(=O)[C@@H]1CSSC[C@H](NC(=O)CNC(=O)[C@H](CC(N)=O)NC(=O)CNC(=O)[C@@H](NC(=O)[C@H](CCCCN)NC(=O)[C@H](CO)NC(=O)[C@H](CC(=O)O)NC(=O)[C@@H](N)CO)[C@@H](C)CC)C(=O)N[C@@H](Cc2ccccc2)C(=O)NCC(=O)N[C@@H](Cc2ccccc2)C(=O)N2CCC[C@H]2C(=O)N[C@@H](CC(C)C)C(=O)N[C@@H](CC(=O)O)C(=O)N[C@@H](CCCNC(=N)N)C(=O)N[C@@H]([C@@H](C)CC)C(=O)NCC(=O)N[C@@H](CO)C(=O)N[C@@H](C(C)C)C(=O)N[C@@H](CO)C(=O)NCC(=O)N[C@@H](CC(C)C)C(=O)NCC(=O)N1)[C@@H](C)CC)C(=O)N[C@@H](CCC(N)=O)C(=O)N[C@@H](CC(N)=O)C(=O)N1CCC[C@H]1C(=O)N1CCC[C@H]1C(=O)N[C@@H](CCCCN)C(=O)N[C@@H](CCCCN)C(=O)N[C@@H](Cc1ccccc1)C(=O)N[C@@H](CO)C(=O)NCC(=O)N[C@@H](CCC(=O)O)C(=O)O` [Nle-TNPc] (H-SDSKIGNGCFGFPLDRIGSVSGLGCNRI[Nle]QNPPKKFSGE-OH; disulfide 9-25; N-terminus assumed), in test [1], the “−Log10 EC50 (pEC50) ± Standard Error” value is reported as 6.497 ± 0.2017 and the EC50 is 3.99e-07 M.

With `CC[C@H](C)[C@@H]1NC(=O)[C@H](CCCNC(=N)N)NC(=O)[C@H](CC(=O)O)NC(=O)[C@H]([C@@H](C)CC)NC(=O)[C@H](CCCCN)NC(=O)[C@H](Cc2c[nH]cn2)NC(=O)CNC(=O)[C@H](Cc2ccccc2)NC(=O)[C@@H](NC(=O)CNC(=O)[C@H](CC(=O)O)NC(=O)[C@@H]2CCCN2C(=O)[C@H](C)NC(=O)[C@H](CCCCN)NC(=O)[C@H](CCCCN)NC(=O)[C@H](CCCCN)NC(=O)[C@@H]2CCCN2C(=O)[C@@H]2CCCN2C(=O)[C@H](CCC(=O)O)NC(=O)[C@H](CC(N)=O)NC(=O)[C@H](CCC(=O)O)NC(=O)CN)CSSC[C@@H](C(=O)N[C@@H](CC(N)=O)C(=O)N[C@@H](CCCCN)C(=O)N[C@@H](Cc2ccccc2)C(=O)N[C@@H](CCCCN)C(=O)N2CCC[C@H]2C(=O)NCC(=O)N[C@@H](Cc2c[nH]cn2)C(=O)O)NC(=O)CNC(=O)[C@H](CC(C)C)NC(=O)CNC(=O)[C@H](CO)NC(=O)[C@H](Cc2c[nH]cn2)NC(=O)[C@H](CO)NC(=O)CNC1=O` [PNP, reference compound] (H-GENEPPKKKAPDGCFGHKIDRIGSHSGLGCNKFKPGH-OH; disulfide 14-30), in test [1], the “−Log10 EC50 (pEC50) ± Standard Error” value amounted to 6.660 ± 0.4500 and the EC50 came to 3.47e-07 M.

`CC[C@H](C)[C@@H]1NC(=O)[C@H](CCCNC(=N)N)NC(=O)[C@H](CC(=O)O)NC(=O)[C@H](CC(C)C)NC(=O)[C@@H]2CCCN2C(=O)[C@H](Cc2ccccc2)NC(=O)CNC(=O)[C@H](Cc2ccccc2)NC(=O)[C@@H](NC(=O)CNC(=O)[C@H](C)NC(=O)[C@H](CO)NC(=O)[C@@H](NC(=O)[C@H](CCCCN)NC(=O)[C@H](CO)NC(=O)[C@H](CC(=O)O)NC(=O)[C@@H](N)CO)[C@@H](C)CC)CSSC[C@@H](C(=O)N[C@@H](CC(N)=O)C(=O)N[C@@H](CCCNC(=N)N)C(=O)N[C@H](C(=O)N[C@@H](CCSC)C(=O)N[C@@H](CCC(N)=O)C(=O)N[C@@H](CC(N)=O)C(=O)N2CCC[C@H]2C(=O)N2CCC[C@H]2C(=O)N[C@@H](CCCCN)C(=O)N[C@@H](CCCCN)C(=O)N[C@@H](Cc2ccccc2)C(=O)N[C@@H](CO)C(=O)NCC(=O)N[C@@H](CCC(=O)O)C(=O)O)[C@@H](C)CC)NC(=O)CNC(=O)[C@H](CC(C)C)NC(=O)CNC(=O)[C@H](CO)NC(=O)[C@H](C(C)C)NC(=O)[C@H](CO)NC(=O)CNC1=O` [Peptide A7S6-TNPc] (H-SDSKISAGCFGFPLDRIGSVSGLGCNRIMQNPPKKFSGE-OH; disulfide 9-25; N-terminus assumed): in test [1], the “−Log10 EC50 (pEC50) ± Standard Error” value is 6.897 ± 0.2652 and the concentration for a half-maximal effect (EC50) was 1.69e-07 M.

`CC[C@H](C)[C@H](NC(=O)[C@H](CCCCN)NC(=O)[C@H](CO)NC(=O)[C@H](CC(=O)O)NC(=O)[C@@H](N)CO)C(=O)NCC(=O)N[C@@H](CC(N)=O)C(=O)NCC(=O)N[C@H]1CSSC[C@@H](C(=O)N[C@@H](CC(N)=O)C(=O)N[C@@H](CCCNC(=N)N)C(=O)N2CCC[C@H]2C(=O)N[C@@H](CCSC)C(=O)N[C@@H](CCC(N)=O)C(=O)N[C@@H](CC(N)=O)C(=O)N2CCC[C@H]2C(=O)N2CCC[C@H]2C(=O)N[C@@H](CCCCN)C(=O)N[C@@H](CCCCN)C(=O)N[C@@H](Cc2ccccc2)C(=O)N[C@@H](CO)C(=O)NCC(=O)N[C@@H](CCC(=O)O)C(=O)O)NC(=O)CNC(=O)[C@H](CC(C)C)NC(=O)CNC(=O)[C@H](CO)NC(=O)[C@H](C(C)C)NC(=O)[C@H](CO)NC(=O)CNC(=O)[C@H]([C@@H](C)CC)NC(=O)[C@H](CCCNC(=N)N)NC(=O)[C@H](CC(=O)O)NC(=O)[C@H](CC(C)C)NC(=O)[C@@H]2CCCN2C(=O)[C@H](Cc2ccccc2)NC(=O)CNC(=O)[C@H](Cc2ccccc2)NC1=O` [Peptide I28P-TNPc] (H-SDSKIGNGCFGFPLDRIGSVSGLGCNRPMQNPPKKFSGE-OH; disulfide 9-25; N-terminus assumed): in test [1], the “−Log10 EC50 (pEC50) ± Standard Error” value is 5.995 ± 0.2450 and the EC50 worked out at 1.19e-06 M.

Turning to `CC[C@H](C)[C@@H]1NC(=O)[C@H](CCCNC(=N)N)NC(=O)[C@H](CC(=O)O)NC(=O)[C@H](CC(C)C)NC(=O)[C@@H]2CCCN2C(=O)[C@H](Cc2ccccc2)NC(=O)CNC(=O)[C@H](Cc2ccccc2)NC(=O)[C@@H](NC(=O)CNC(=O)[C@H](CCCCN)NC(=O)[C@H](CO)NC(=O)[C@@H](NC(=O)[C@H](CCCCN)NC(=O)[C@H](CO)NC(=O)[C@H](CC(=O)O)NC(=O)[C@@H](N)CO)[C@@H](C)CC)CSSC[C@@H](C(=O)N[C@@H](CC(N)=O)C(=O)N[C@@H](CCCNC(=N)N)C(=O)N[C@H](C(=O)N[C@@H](CCSC)C(=O)N[C@@H](CCC(N)=O)C(=O)N[C@@H](CC(N)=O)C(=O)N2CCC[C@H]2C(=O)N2CCC[C@H]2C(=O)N[C@@H](CCCCN)C(=O)N[C@@H](CCCCN)C(=O)N[C@@H](Cc2ccccc2)C(=O)N[C@@H](CO)C(=O)NCC(=O)N[C@@H](CCC(=O)O)C(=O)O)[C@@H](C)CC)NC(=O)CNC(=O)[C@H](CC(C)C)NC(=O)CNC(=O)[C@H](CO)NC(=O)[C@H](C(C)C)NC(=O)[C@H](CO)NC(=O)CNC1=O` [Peptide K7S6-TNPc] (H-SDSKISKGCFGFPLDRIGSVSGLGCNRIMQNPPKKFSGE-OH; disulfide 9-25; N-terminus assumed), in test [1], the “−Log10 EC50 (pEC50) ± Standard Error” value came to 7.567 ± 0.4397 and the concentration for a half-maximal effect (EC50) was found to be 5.24e-08 M.

Consider “SDSKIGNGCFGFPLDHIGSVSGLGCNRIMQNPPKKFSGE (A portion of a natriuretic peptide) [TNPc R16H]”, for which, in the test on conscious rabbits (setting [2]), the “Recovery (MAP)” value was 67.6 mm Hg and the “Recovery Delta SED (MAP)” value amounted to 2.0 ± 3.9 mm Hg. Besides, in the test on conscious rabbits (highest dose), the “reduction of MAP compared to vehicle, in words” value is listed as “did significantly reduce MAP”. Moreover, the “MAP at final dose” value in the test on conscious rabbits (highest dose, Table 10A) is on record as 65.6 mm Hg. In addition, the “Treatment Effect, change of mean blood pressure during the infusion” value with conscious rabbits (highest dose, Table 10A, groups 1, 2A and 3) is listed as −7.3 mm Hg.

The record behind these values is US8058242B2, “Chimeric proteins with natriuretic activity” (The University of Queensland, priority 2004, dated 2011).
